Like-named read-outs stand apart in the source and are kept apart here.
Tests used:
Japanese mustard spinach = settings: 28 days
Experimental: (§1) As a cultivation temperature, two types of a low temperature condition LT (Low Temperature: light period 20° C./dark period 15° C.) and a high temperature condition HT (High Temperature: light period 25° C./dark period 20° C.) were set. […] Specifically, a single individual was put into each pot having about […], and 25 mL of each solution was provided to roots of each pot once a week. In the same way as Example 1, a leaf (or a terrestrial part) was measured as a sample in a cation mode and an anion mode of CE-TOFMS (capillary electrophoresis-time-of-flight mass spectrometry: Agilent CE-TOFMS system (Agilent technologies)). By comparing a detected peak with database on the basis of m/Z and a migration period, an amino acid was searched, identified, and quantified.

Arabidopsis [1] = assay type: in vivo, Arabidopsis thaliana
Arabidopsis [2] = assay type: in vivo, Arabidopsis thaliana; settings: 1 mM GSSG, 2 mM GSH or 3 mM NH4NO3, 25 mL per pot to roots once a week
spinach = assay: Free amino acid content in spinach under cultivation temperature control; assay type: in vivo, Spinacia oleracea; settings: 28 days
Experimental: as §1, with “A cultivation condition of spinach, which was a vegetable of the goosefoot family (Chenopodioideae), supplied with glutathione was examined. After spinach was seeded, sprouts germinated to a similar extent were selected, were cultivated in an incubator (light period: 14 hours/dark period: 10 hours, light intensity: about 250 μE/m^2/s), and were sampled after 28 days. As” for “As”

garland chrysanthemum = assay: Free amino acid content in garland chrysanthemum at various glutathione concentrations; assay type: in vivo, Chrysanthemum coronarium; settings: 28 days
Experimental: An effect on amino acid contents of garland chrysanthemum which was vegetable of the composite family (Compositae), to which garland chrysanthemum glutathione having various concentrations was supplied, was examined. After garland chrysanthemum was seeded, sprouts germinated similarly were selected, were cultivated in an incubator (light period: 14 hours, 20° C./dark period: 10 hours, 15° C., light intensity: about 250 μE/m^2/s), and were sampled after 28 days. As a medium, a soil formed by placing vermiculite (Asahi industrial corporation) as a lower layer, KUREHA seedling raising soil (KUREHA CORPORATION) as a middle layer, and vermiculite (Asahi industrial corporation) as an upper layer at a ratio of 2:1:1 in lamination was used.
In this experiment, only water (Cont.), 0.1 mM, 0.2 mM, 0.5 mM, 1 mM, 2 mM, and 5 mM of oxidized glutathione (GSSG) solutions were provided to plants.

[3] = low temperature condition (light 20° C./dark 15° C.), 2 mM GSH
[4] = high temperature condition (light 25° C./dark 20° C.), 1 mM GSSG

N[C@@H](CCC(=O)N[C@@H](CS)C(=O)NCC(=O)O)C(=O)O [GSH, reduced glutathione]
GABA content relative to control (Japanese mustard spinach; [3]): ≥ 2 times | arginine content relative to control (Japanese mustard spinach; [3]): ≥ 2 times | asparagine content relative to control (Japanese mustard spinach; [3]): ≥ 2 times | aspartic acid content relative to control (Japanese mustard spinach; [3]): ≥ 2 times | glutamine content relative to control (Japanese mustard spinach; [3]): ≥ 2 times | isoleucine content relative to control (Japanese mustard spinach; [3]): ≥ 2 times | threonine content relative to control (Japanese mustard spinach; [3]): ≥ 2 times | asparagine content in a leaf (Arabidopsis [1]; effect larger in leaf before photoirradiation (L0), 1 mM GSSG, 2 mM GSH, 3 mM NH4NO3): largely increased | serine content in a leaf (Arabidopsis [1]; treatment combined with photoirradiation for 8 hours (L8, 100 μE/m^2/s), 1 mM GSSG, 2 mM GSH, 3 mM NH4NO3): remarkably increased | total free amino acid content relative to control condition (only water) (Arabidopsis [2]; plants after 4 weeks from seeding): about 2.9 times | total free amino acid content relative to control condition (only water) (Arabidopsis [2]; plants after 5 weeks from seeding): about 2.4 times

N[C@@H](CCC(=O)N[C@@H](CS)C(=O)NCC(=O)O)C(=O)O [glutathione]
effect of increase in amino acid content relative to control = 1 (FIG. 10) (Japanese mustard spinach; high temperature condition (light 25° C./dark 20° C.), β-alanine, asparagine, glutamine): observed in part of amino acids | effect on amino acid contents relative to control = 1 (FIG. 8) (spinach; low temperature condition (light 20° C./dark 15° C.), observed in part of amino acids): small

oxidized glutathione [GSSG]
asparagine content, ratio to control = 1 (garland chrysanthemum; 5 mM of GSSG): ≥ 100 times | glutamine content, ratio to control = 1 (garland chrysanthemum; 5 mM of GSSG): ≥ 100 times | glycine content, ratio to control = 1 (garland chrysanthemum; 5 mM of GSSG): ≥ 100 times | histidine content, ratio to control = 1 (garland chrysanthemum; 5 mM of GSSG): ≥ 100 times | homoserine content, ratio to control = 1 (garland chrysanthemum; 5 mM of GSSG): ≥ 100 times | total free amino acid content, ratio to control = 1 (garland chrysanthemum; 5 mM of GSSG): 24.8 times | total free amino acid content compared with control (garland chrysanthemum; GSSG 0.1 mM, 25 mL per pot once a week): decreased | free amino acid contents compared with total free amino acid content under control condition (garland chrysanthemum; GSSG 0.2 mM to 5 mM, 25 mL per pot once a week): increased concentration-dependently | asparagine content in a leaf (Arabidopsis [1]; in vivo): largely increased | serine content in a leaf (Arabidopsis [1]; in vivo): remarkably increased | glycine content relative to control (spinach; [4]): ≥ 5 times | homoserine content relative to control (spinach; [4]): ≥ 5 times | phenylalanine content relative to control (spinach; [4]): ≥ 5 times | tyrosine content relative to control (spinach; [4]): ≥ 5 times
